Measured values as given in US20020138856A1, “Compositions and methods useful for treatment of depressive disorder based on an animal model” (Northwestern University, priority 1998, published 2002).
Entries after “also recorded” stand apart in the source; their conditions may differ.

Columns and labels:
WMI rats = assay: Forced swim test (FST) immobility before and after drug administration, WMI rats; assay type: in vivo, rat; details: for effect on alleviating depression (FST immobility): desipramine administered three times within 24 hours
Text: (§1) FIG. 6 is a graph depicting the immobility in the forced swim test of 14 week-old animals before and after administration of either desipramine, fluoxetine, or water in WMI and WLI animals. Shaded squares and circles indicate immobility after treatment, unshaded squares and circles indicate immobility before treatment, squares indicate WMI animals, and circles indicate WLI animals.
(§2) The main test of behavior in the rats of the invention is the FST. The general parameters governing this test are as follows, it being understood that variations of the test are permissible within acceptable bounds. The test utilizes a glass water tank 30 cm in diameter and 45 cm tall wherein the water level is 15 cm from the top and the water temperature is 25° C. The procedure for the test is adapted from Porsolt et al. and Detke et al., as described in Detke et al., 1995, Psychopharm. 121:66-72). Rats are individually placed in the water tank for 15 minutes and are then removed from the tank and returned to their cages. […] This 5 minute test session is recorded on videotape. The performance of the rat on the tape is analyzed and subsequently scored using the scoring system developed by Detke et al. (1995, Psychopharm. 121:66-72) by a trained observer, who is unaware as to the various treatment conditions of the rats. […] The following behaviors are recorded: immobility, swimming, and climbing. The rats are scored at 5 second intervals, thus, there are 12 intervals per minute sampled. […] By way of example, if a rat was scored as immobile at 13 of the […], the FST score would be 13. […]
(§3) The WMI and WLI rats of the invention are useful for screening compounds effective for modulation, preferably, alleviation of depression and other behavioral and depressive disorders. […] WMI and WLI rats are administered a test compound or a placebo at a dosage, a route of administration and for a period of time which is determined by the artisan skilled in such procedures, following standard protocols such as those described, for example, in Remington's Pharmaceutical Sciences, Mack Publishing Co., Easton, Pa., 1985. […]

WLI rats = assay: Forced swim test (FST) immobility before and after drug administration, WLI rats; assay type: in vivo, rat
Text: as §1, §2, §3

WKY rats = details: chronic and subacute treatment (three times per day between first and third swim); cited from earlier work

Compound | immobility time in the forced swim test after administration (WMI rats; 14 week-old, before treatment about nineteen 5-second intervals, FIG. 6) | effect on alleviating depression (FST immobility) (WMI rats) | effect on alleviating depression (FST immobility) (WLI rats) | immobility time in the forced swim test after administration (WLI rats; 14 week-old, before treatment about nine 5-second intervals, change not significant, FIG. 6) | effect on depressive behavior (immobility, struggling in forced swim test) (WKY rats)
CNCCCN1c2ccccc2CCc2ccccc21 [Desipramine, desipramine] | about five | responsive; also recorded: effectively alleviated depression | do not respond; also recorded: resistant to treatment | about six | decreased the depressive behavior
CNCCC(Oc1ccc(C(F)(F)F)cc1)c1ccccc1 (centres unmarked) [Fluoxetine, fluoxetine] |  | virtually no effect | virtually no effect |  | 
CN(C)CCCN1c2ccccc2CCc2ccccc21 [imipramine] |  |  |  |  | decreased the depressive behavior
